Measured values reported in ChEMBL document CHEMBL1909046, “DrugMatrix in vitro pharmacology data”.

Experiments:
[1] = target: Beta-3 adrenergic receptor (Homo sapiens, UniProt P13945); assay: DRUGMATRIX: Adrenergic beta3 radioligand binding (ligand: [125I] Cyanopindolol); type: cell membranes, HEK293, Membrane; conditions: hek293; Not Active = under 50% inhibition at 10 µM
[2] = target: 5-hydroxytryptamine receptor 2B (Homo sapiens, UniProt P41595); type: cell membranes, CHO-K1, Membrane; note: in other assays of this panel Not Active means under 50% inhibition at 10 µM
Chain of 5-hydroxytryptamine receptor 2B (P41595 whole entry): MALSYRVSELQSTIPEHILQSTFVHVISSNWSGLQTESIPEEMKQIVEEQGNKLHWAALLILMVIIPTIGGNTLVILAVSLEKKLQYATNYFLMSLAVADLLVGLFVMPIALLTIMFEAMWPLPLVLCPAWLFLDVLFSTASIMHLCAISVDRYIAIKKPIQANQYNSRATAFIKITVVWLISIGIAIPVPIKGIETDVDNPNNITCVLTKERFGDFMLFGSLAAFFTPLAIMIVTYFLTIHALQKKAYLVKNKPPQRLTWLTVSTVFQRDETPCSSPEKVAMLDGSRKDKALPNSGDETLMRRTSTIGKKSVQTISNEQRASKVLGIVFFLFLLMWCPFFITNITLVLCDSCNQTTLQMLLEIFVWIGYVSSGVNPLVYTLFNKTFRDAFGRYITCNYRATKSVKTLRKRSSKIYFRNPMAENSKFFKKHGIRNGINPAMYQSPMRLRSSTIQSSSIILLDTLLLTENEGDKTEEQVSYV

Endothelin-1 receptor = target: T1, Endothelin-1 receptor (Homo sapiens, UniProt P25101); type: cell membranes, CHO-K1, Membrane; conditions: cho-k1; note: in other assays of this panel Not Active means under 50% inhibition at 10 µM
T1 sequence (P25101 whole entry): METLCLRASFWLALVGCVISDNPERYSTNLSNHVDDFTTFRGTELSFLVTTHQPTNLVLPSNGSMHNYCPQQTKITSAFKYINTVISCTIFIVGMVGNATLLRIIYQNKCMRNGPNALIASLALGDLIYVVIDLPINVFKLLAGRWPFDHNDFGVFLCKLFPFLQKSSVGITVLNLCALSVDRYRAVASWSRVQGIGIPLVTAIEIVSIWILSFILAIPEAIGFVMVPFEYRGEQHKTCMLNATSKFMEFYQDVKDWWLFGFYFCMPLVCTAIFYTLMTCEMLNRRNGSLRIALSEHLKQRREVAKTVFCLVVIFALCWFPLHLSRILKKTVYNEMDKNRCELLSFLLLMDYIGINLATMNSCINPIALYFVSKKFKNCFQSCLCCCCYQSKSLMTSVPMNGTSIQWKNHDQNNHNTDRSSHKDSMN

[3] = DRUGMATRIX: Glutamate, Kainate radioligand binding (ligand: [3H] Kainic acid); type: cell membranes, Rattus norvegicus, Wistar, Brain, Membrane; conditions: Not Active = under 50% inhibition at 10 µM
[4] = target: Platelet-activating factor receptor (Homo sapiens, UniProt P25105); assay: biochemical; type: tissue-based; conditions: platelet; note: in other assays of this panel Not Active means under 50% inhibition at 10 µM
Chain of Platelet-activating factor receptor (P25105 whole entry): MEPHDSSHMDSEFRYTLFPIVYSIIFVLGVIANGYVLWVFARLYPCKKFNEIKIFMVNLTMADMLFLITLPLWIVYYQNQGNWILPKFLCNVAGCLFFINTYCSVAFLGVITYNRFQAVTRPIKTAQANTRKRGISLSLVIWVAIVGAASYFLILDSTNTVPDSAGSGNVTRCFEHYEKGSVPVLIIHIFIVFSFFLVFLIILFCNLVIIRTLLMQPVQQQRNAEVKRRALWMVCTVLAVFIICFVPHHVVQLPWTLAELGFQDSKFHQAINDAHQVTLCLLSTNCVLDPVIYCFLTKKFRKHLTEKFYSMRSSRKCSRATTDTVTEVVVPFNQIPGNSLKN

[5] = DRUGMATRIX: Purinergic P2X radioligand binding (ligand: [3H] alpha, beta-Methylene-ATP); type: cell membranes, Oryctolagus cuniculus, New Zealand albino, Urinary bladder, Membrane; conditions: Not Active = under 50% inhibition at 10 µM
Cytochrome P450 2E1 = Cytochrome P450 2E1 (Homo sapiens, UniProt P05181); conditions: bti-tn-5b1-4; note: in other assays of this panel Not Active means under 50% inhibition at 10 µM
Chain of Cytochrome P450 2E1 (P05181 whole entry): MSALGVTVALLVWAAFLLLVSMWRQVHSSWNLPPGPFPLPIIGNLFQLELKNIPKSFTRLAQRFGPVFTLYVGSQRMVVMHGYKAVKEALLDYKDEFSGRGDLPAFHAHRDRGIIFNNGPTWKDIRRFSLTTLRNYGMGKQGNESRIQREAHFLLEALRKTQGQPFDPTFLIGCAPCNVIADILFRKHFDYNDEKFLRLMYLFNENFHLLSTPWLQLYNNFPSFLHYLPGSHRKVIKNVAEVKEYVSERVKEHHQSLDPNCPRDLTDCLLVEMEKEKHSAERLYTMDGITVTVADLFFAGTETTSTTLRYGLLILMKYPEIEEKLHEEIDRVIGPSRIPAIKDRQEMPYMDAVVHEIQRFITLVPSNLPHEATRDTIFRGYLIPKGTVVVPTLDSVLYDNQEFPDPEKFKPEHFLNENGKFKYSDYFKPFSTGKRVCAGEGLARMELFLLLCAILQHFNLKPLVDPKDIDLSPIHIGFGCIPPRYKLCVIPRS

Chain of Beta-3 adrenergic receptor (P13945 whole entry): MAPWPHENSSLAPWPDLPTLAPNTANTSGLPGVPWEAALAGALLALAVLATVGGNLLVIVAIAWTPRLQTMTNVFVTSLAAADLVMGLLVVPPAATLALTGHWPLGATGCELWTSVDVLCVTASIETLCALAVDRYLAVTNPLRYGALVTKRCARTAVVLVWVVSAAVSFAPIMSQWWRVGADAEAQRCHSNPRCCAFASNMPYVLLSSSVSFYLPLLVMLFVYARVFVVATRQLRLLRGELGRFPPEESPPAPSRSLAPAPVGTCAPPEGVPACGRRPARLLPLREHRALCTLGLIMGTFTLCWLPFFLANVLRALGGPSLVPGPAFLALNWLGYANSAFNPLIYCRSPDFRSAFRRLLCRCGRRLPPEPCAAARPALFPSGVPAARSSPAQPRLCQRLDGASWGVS

Row | Compound | IC50 [1] | IC50 ([2]; cho-k1) | IC50 (Endothelin-1 receptor) | IC50 [3] | Ki [3] | IC50 [4] | IC50 [5] | Ki [5] | IC50 (Cytochrome P450 2E1) | Ki (Cytochrome P450 2E1) | IC50 ([2]; read-out: IC50) | Ki ([2]; read-out: Ki)
1 | C[C@H](C(=O)O)c1cccc(C(=O)c2ccccc2)c1 [DEXKETOPROFEN] | Not Active | Not Active | Not Active | Not Active | Not Active | Not Active | Not Active | Not Active | Not Active | Not Active |  | 
2 | CN1C(=O)CN=C(c2ccccc2)c2cc(Cl)ccc21 [DIAZEPAM] | Not Active | Not Active | Not Active | Not Active | Not Active | Not Active | Not Active | Not Active | Not Active | Not Active |  | 
3 | CN1C[C@H](C(=O)N[C@]2(C)O[C@@]3(O)[C@@H]4CCCN4C(=O)[C@H](Cc4ccccc4)N3C2=O)C[C@@H]2c3cccc4[nH]cc(c34)C[C@H]21 [DIHYDROERGOTAMINE] | Not Active |  | Not Active | Not Active | Not Active | Not Active | Not Active | Not Active | Not Active | Not Active | 6.8 nM | 4.33 nM
4 | Cc1c(N(C)CS(=O)(=O)[O-])c(=O)n(-c2ccccc2)n1C.[Na+] [DIPYRONE SODIUM] | Not Active | Not Active | Not Active | Not Active | Not Active | Not Active | Not Active | Not Active | Not Active | Not Active |  | 
5 | CC(CCc1ccc(O)cc1)NCCc1ccc(O)c(O)c1 (stereo unspecified) [DOBUTAMINE] | Not Active | Not Active | Not Active | Not Active | Not Active | Not Active | Not Active | Not Active | Not Active | Not Active |  | 
6 | CCn1cc(C(=O)O)c(=O)c2cc(F)c(N3CCNCC3)nc21 [ENOXACIN] | Not Active | Not Active | Not Active | Not Active | Not Active | Not Active | Not Active | Not Active | Not Active | Not Active |  | 
7 | CCC(=O)O[C@H]1[C@H](O[C@@H]2[C@@H](C)[C@H](O[C@H]3C[C@@](C)(OC)[C@@H](O)[C@H](C)O3)[C@@H](C)C(=O)O[C@H](CC)[C@@](C)(O)[C@H](O)[C@@H](C)C(=O)[C@H](C)C[C@@]2(C)O)O[C@H](C)C[C@@H]1N(C)C [ERYTHROMYCIN PROPIONATE] | Not Active | Not Active | Not Active | Not Active | Not Active | Not Active | Not Active | Not Active | Not Active | Not Active |  | 
8 | C=C(CC)C(=O)c1ccc(OCC(=O)O)c(Cl)c1Cl [ETHACRYNIC ACID] | Not Active | Not Active | Not Active | Not Active | Not Active | Not Active | Not Active | Not Active | Not Active | Not Active |  | 
9 | C#C[C@]1(O)CC[C@H]2[C@@H]3CCc4cc(O)ccc4[C@H]3CC[C@@]21C [ETHINYL ESTRADIOL] | Not Active | Not Active | Not Active | Not Active | Not Active | Not Active | Not Active | Not Active | Not Active | Not Active |  | 
10 | OCCO [ETHYLENE GLYCOL] | Not Active | Not Active | Not Active | Not Active | Not Active | Not Active | Not Active | Not Active | Not Active | Not Active |  | 
11 | CC(=O)OCC(CCn1cnc2cnc(N)nc21)COC(C)=O [FAMCICLOVIR] | Not Active | Not Active | Not Active | Not Active | Not Active | Not Active | Not Active | Not Active | Not Active | Not Active |  | 
12 | O=C(O)Cc1ccc(-c2ccccc2)cc1 [FELBINAC] | Not Active | Not Active | Not Active | Not Active | Not Active | Not Active | Not Active | Not Active | Not Active | Not Active |  | 
13 | CCOC(=O)C1=C(C)NC(C)=C(C(=O)OC)C1c1cccc(Cl)c1Cl (stereo unspecified) [FELODIPINE] | Not Active | Not Active | Not Active | Not Active | Not Active | Not Active | Not Active | Not Active | Not Active | Not Active |  | 
